Literature values, collected in US12319654B2, “Inert nanocapsules” (THE UNIVERSITY COURT OF THE UNIVERSITY OF EDINBURGH, priority 2018, dated 2025).

Details: free anion

Clearance time: ca. 30 mins
SMILES: [O]=[99Tc](=[O])(=[O])[O-] [^99mTcO4^−]
